Laboratory results: paper PMC8662641, “Site-Specific Labeling of Endogenous Proteins Using CoLDR Chemistry” (Journal of the American Chemical Society, 2021)
Read-outs that look alike come from different tables or passages of the source.

Tests used:
Buffer stability assay = format: physicochemical
Method: A sample of 100 μM of the electrophile (1a–1p) was incubated with 100 μM 4-nitrocyanobenzene as an internal standard in a 100 mM potassium phosphate buffer of pH 8.0. All solvents were bubbled with argon. Reaction mixtures were kept at 37 °C with shaking. After 4 days (unless otherwise mentioned), 5 μL from the reaction mixture was injected into the LC/MS to check the stability of the compounds.

GSH reactivity assay = format: physicochemical; conditions: for half-life at 100 μM: 5 mM GSH in potassium phosphate buffer/DMF, pH 8, read-out: GSH t1/2
Method: A 100 μM (0.5 μL of a 20 mM stock) sample of the electrophile (1a–1m) was incubated with 5 mM GSH (5 μL of a 100 mM stock, freshly dissolved), 5 mM NaOH (to counter the acidity imparted by GSH), and 100 μM 4-nitrocyanobenzene (0.5 μL of a 20 mM stock solution) as an internal standard in 100 mM potassium phosphate buffer pH 8.0 and DMF at a ratio of 9:1, respectively. All solvents were bubbled with argon. Reaction mixtures were kept at 14 °C. Every 1 h 5 μL from the reaction mixture was injected into the LC/MS. The reaction was followed by the peak area of the electrophile normalized by the area of the 4-nitrocyanobenzene (i.e., by the disappearance of the starting material). The natural logarithm of the results was fitted to linear regression, and t1/2 was calculated as t1/2 = ln 2/–slope.

BTK [1] = molecular target: T1, BTK (Homo sapiens, UniProt Q06187); experiment: In-gel fluorescence labeling profile in Mino cells; conditions: for labeling of BTK in live Mino cells: 2 h incubation, in-gel fluorescence
Target sequence in this assay (Q06187 whole entry, the tested form may be a part): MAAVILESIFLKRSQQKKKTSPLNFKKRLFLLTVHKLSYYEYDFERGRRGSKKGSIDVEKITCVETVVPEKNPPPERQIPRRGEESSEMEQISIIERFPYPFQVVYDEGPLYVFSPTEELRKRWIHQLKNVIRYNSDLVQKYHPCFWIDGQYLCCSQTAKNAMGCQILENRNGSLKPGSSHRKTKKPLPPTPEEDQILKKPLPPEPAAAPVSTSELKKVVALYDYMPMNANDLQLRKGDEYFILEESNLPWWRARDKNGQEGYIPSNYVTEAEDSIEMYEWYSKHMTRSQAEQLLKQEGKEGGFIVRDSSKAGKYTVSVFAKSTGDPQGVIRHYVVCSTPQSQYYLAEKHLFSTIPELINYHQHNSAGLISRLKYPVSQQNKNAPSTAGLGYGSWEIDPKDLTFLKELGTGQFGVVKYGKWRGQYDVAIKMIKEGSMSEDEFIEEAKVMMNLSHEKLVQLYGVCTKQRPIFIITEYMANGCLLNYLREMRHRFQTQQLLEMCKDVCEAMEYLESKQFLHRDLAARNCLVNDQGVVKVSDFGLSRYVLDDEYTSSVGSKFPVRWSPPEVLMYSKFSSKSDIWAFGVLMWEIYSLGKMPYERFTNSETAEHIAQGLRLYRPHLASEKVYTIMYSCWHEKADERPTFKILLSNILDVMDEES
Method: Lysates were then diluted to 2 mg/mL in PBS. […] The samples were incubated at 25 °C for 2 h. A 20 μL amount of 4× LDS sample buffer (NuPAGE, Thermo Fisher Scientific, NP0007) was added followed by a 10 min incubation at 70 °C.
The 1× chloroform, 4× methanol, and 3× water were added to the samples and vortexed thoroughly. The samples were spun down for 10 min at 4 °C. The top layer was aspirated, and the pellet was resuspended in 4× methanol. The sample was vortexed and spun down again for 10 min at 4 °C, the solution was removed, and the pellet was dried for 2 min. The pellet was dissolved in 42 μL of PBS followed by 14 μL of 4× sample buffer. The samples were then loaded on a 4–20% Bis-Tris gel (SurePAGE, GeneScript) and imaged using a Typhoon FLA 9500 scanner.

BTK kinase domain = BTK kinase domain (Homo sapiens, UniProt Q06187); experiment: Labeling of recombinant BTK by intact protein LC/MS; format: binding; design: BTK kinase domain was expressed and purified as previously reported; made in house; conditions: BTK 2 μM, 2a 2 μM, 10 min, 25 °C, pH 8
BTK kinase domain, sequence (Q06187 402-655 limits assumed): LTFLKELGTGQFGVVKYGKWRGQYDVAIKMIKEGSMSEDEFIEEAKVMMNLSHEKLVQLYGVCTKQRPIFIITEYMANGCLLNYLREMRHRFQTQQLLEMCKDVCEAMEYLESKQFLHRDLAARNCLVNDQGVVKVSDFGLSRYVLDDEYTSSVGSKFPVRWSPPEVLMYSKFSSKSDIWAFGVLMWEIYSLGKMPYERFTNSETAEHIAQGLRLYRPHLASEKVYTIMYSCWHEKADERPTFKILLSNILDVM

BTK-1h = molecular target: T2, BTK-1h (Homo sapiens, UniProt Q06187); experiment: High-throughput screening with 1h-labeled BTK; format: binding
T2 construct: The BTK kinase domain was diluted to 2 μM in the buffer, and 2 μM 1h was added; made in house
T2 sequence (Q06187 402-655): as the sequence (Q06187 402-655 limits assumed) above
Method: The collection was composed of BTK binding compounds obtained in our previous luminescence screen[37] (Data set S2). […] The resulting BTK-1h (50 μL) was added to the inhibitors.

[2] = molecular target: ubiquitin C-terminal hydrolase L3; design: method as in selleck (supplier comment); conditions: ref selleck (supplier comment); cited from earlier work
BTK [3] = molecular target: T1, BTK; design: BTK kinase domain was expressed and purified as previously reported; made in house; method as in Reddi et al., J. Am. Chem. Soc. 2021, 143 (13), 4979–4992; conditions: ref Reddi et al., J. Am. Chem. Soc. 2021, 143 (13), 4979–4992; cited from earlier work
Target sequence in this assay (Q06187 402-655 limits assumed): as above

BTK [4] = molecular target: T1, BTK; experiment: Degradation of BTK by a CoLDR PROTAC in Mino cells; format: cell-based; design: We incubated Mino B cells with probes containing different tags; endogenous in cells; host or cells: Mino cells; conditions: for DC50: Mino cells, 24 h, Western blot
Target sequence in this assay (Q06187 whole entry, the tested form may be a part): as the sequence (Q06187 whole entry, the tested form may be a part) above
From the text: Cells were harvested for subsequent analysis by immunoblotting of BTK and β-actin. Bands were quantified using ImageJ, BTK signal was normalized to β-actin, and levels in DMSO were defined as 100%. BTK levels versus concentrations were plotted, and the data were fitted to one-phase decay in Prism 8 to calculate the DC50.

Aurora A = system: Aurora A; design: method as in selleck (supplier comment); conditions: ref selleck (supplier comment); cited from earlier work
primary mouse B cells = experiment: B-cell response experiment (CD86 after anti-IgM); format: cell-based; conditions: 24 h treatment, 1–1000 nM
Method: Splenic cells from C57BL/6 mice were isolated by forcing spleen tissue through the mesh into PBS containing 2% fetal calf serum and 1 mM EDTA, and red blood cells were depleted by lysis buffer. […] Following a 24 h incubation, cells were stimulated with anti-IgM overnight (5 μg/mL, Sigma-Aldrich). […] Single-cell suspensions were analyzed by a flow cytometer (CytoFlex, Beckman Coulter).

BTK [5] = molecular target: T1, BTK; experiment: BTK activity in Mino cells (autophosphorylation); format: cell-based; design: We incubated Mino B cells with probes containing different tags; endogenous in cells; host or cells: Mino cells; conditions: Mino cells, 1 h; 100 nM probes, 1 μM ibrutinib or Ibr-H
Method: The cells were harvested, and immunoblots of phospho-BTK, total-BTK, and β-actin were performed.
Cell pellets were washed with ice-cold PBS and lysed using RIPA buffer (Sigma, R0278). […] Samples containing 50 μg of total protein were prepared with 4× LDS sample buffer (NuPAGE, Thermo Fischer Scientific, NP0007) and were then resolved on a 4–20% Bis-Tris gel (GeneScript SurePAGE, M00657). […] The EZ-ECL kit (Biological Industries, 20-500-1000) was used to detect HRP activity.
Target sequence in this assay (Q06187 whole entry, the tested form may be a part): as above

Mino cells = experiment: Degradation proteomics (label-free quantitative proteomics); format: cell-based, human; conditions: 1n 500 nM, 24 h
Method: A total of 1 × 10^6 Mino cells were treated in four replicates with either 1n (500 nM) or DMSO (0.1%) for 24 h. Cells were then harvested and washed with ice cold PBS. Samples were then centrifuged at 200 rcf, 4 °C for 5 min; then the supernatant was removed and the samples were frozen at −80 °C. Samples were dispersed in 75 μL of 50 mM ammonium bicarbonate and transferred to 1.8 mL glass vials. A 75 μL amount of 10% SDS in 50 mM ammonium bicarbonate was added, and the samples were heated to 96 °C for 6 min. The samples were sonicated thoroughly in a sonication bath until the DNA was sheared, as indicated by reduction in viscosity to a level enabling easy pipettation. Total protein concentration was estimated using the BCA assay, and 30 μg from each sample was taken for LC/MS/MS analysis. The detailed procedure is available in the Supplementary Methods Section.
Trypsin/P with a maximum number of missed cleavages of 2. Oxidation of methionine and N-terminal acetylation were included as variable modifications. The “Re-quantify” option was enabled. Carbamidomethyl (C2H3NO) was used as a fixed modification on cysteine.
Contaminants were included. Peptides were searched with a minimum peptide length of 7 and a maximum peptide mass of 6500 Da. “Second peptides” was enabled, “Dependent peptides” were disabled and the option “Match between run” was enabled with a Match time window of 0.7 min and an alignment window of 20 min. An FDR of 0.01 was used for Protein FDR, PSM FDR and XPSM FDR. Proteins were identified and quantified based on the label-free quantification (LFQ) (REF: www.mcponline.org/content/13/9/2513.short) values reported by MaxQuant. Following MaxQuant analysis, proteins identified only through razor peptides or modified peptides, as well as common contaminants, were removed, and only proteins that gave at least 3 non-zero LFQ intensity values in at least one of the data sets were retained for analysis. Missing values were then replaced from a normal distribution.
Degradation proteomics experiment (label free quantitative proteomics)
Sample preparation: 106 Mino cells were treated in four replicates with either compound or DMSO for 24 hours. Cells were then washed twice by centrifuge at 200 rcf, 4°C for 5 minutes, removing the supernatant and washed with ice cold PBS. Samples were then centrifuged at 200 rcf, 4°C for 5 minutes, then supernatant was removed and samples were frozen at -80°C. Samples were dispersed in 75 μl of 50 mM ammonium bicarbonate, and transferred to 1.8 mL glass vials.
75 μl of 10% SDS in 50 mM ammonium bicarbonate were added and the samples were heated to 96°C for 6 minutes. The samples were sonicated thoroughly in a sonication bath until the DNA was sheared as indicated by reduction in viscosity to level enabling easy pipettation. Total protein concentration was estimated using BCA assay and 30 µg from each sample was taken for the […]
The samples were reduced by the addition of 1/20 volume of 100 mM DTT and heating to 60°C for 45 minutes. The samples were cooled to room temperature, and 1/20 volume of 200 mM iodoacetamide was added and the reaction was performed in the dark for 30 minutes.
At this point, 1/10 volume of 12% phosphoric acid was added, followed by 6 volumes of 90% methanol in 50 mM ammonium bicarbonate. The samples were loaded on S-trap Micro columns (Protify), and washed 3 times with 90% methanol in 50 mM ammonium bicarbonate. The columns were spun without washing to dry the methanol. […]

[6] = phosphate buffer pH 8, 37 °C, in 2 days
[7] = Dataset S2A, 200 μM compound, BTK-1h, 32 °C, 10 min

C=C(CN1CCC[C@@H](n2nc(-c3ccc(Oc4ccccc4)cc3)c3c(N)ncnc32)C1)C(=O)NCCOCCOCCOCCOCCC(=O)Nc1cccc2c1CN(C1CCC(=O)NC1=O)C2=O (stereo partly drawn) [1p] showed a water adduct formed (Buffer stability assay; PBS buffer pH 8, 37 °C) of 5%.

For C#CCCCCC(=O)NC1CCN(C(=O)C(=C)CN2CCC[C@@H](n3nc(-c4ccc(Oc5ccccc5)cc4)c4c(N)ncnc43)C2)CC1 [1d], the half-life at 100 μM (GSH reactivity assay; 100 μM compound) was over 100 h, the “less reactive toward GSH than ibrutinib” value (GSH reactivity assay; 5 mM GSH, pH 8) was over 20 fold and the “labeling of BTK in live Mino cells” value (BTK [1]) was “labeled BTK with more selectivity”.

With C#CCCNC(=O)C(=C)CN1CCC(CNc2ncnc(N)c2-c2ccc(Oc3ccccc3)cc2)CC1 [2a] the “single labeling of target (BTK)” value (BTK kinase domain) was 100%.

With C=C(CN1CCC[C@@H](n2nc(-c3ccc(Oc4ccccc4)cc3)c3c(N)ncnc32)C1)C(=O)OCC [1a] the “time to complete reaction with GSH” value (GSH reactivity assay; 100 μM compound, 5 mM GSH, pH 8, 14 °C) was at most 10 min, the half-life at 100 μM (GSH reactivity assay; 100 μM compound) was under 0.167 h and the hydrolysis/elimination (Buffer stability assay; PBS buffer pH 8, 37 °C, in two days) was 100%. The elimination (Buffer stability assay; [6]) was 50% and the hydrolysis (Buffer stability assay; [6]) was 50%.

With C=C(CN1CCC[C@@H](n2nc(-c3ccc(Oc4ccccc4)cc3)c3c(N)ncnc32)C1)C(=O)NCCN [1e] the Ibr-H elimination (Buffer stability assay; phosphate buffer pH 8, 37 °C, after 4 days) was 25%.

For O=C1CC(=O)c2c(Cl)c(Cl)c(Cl)c(Cl)c21 [PCM-0215201-001, TCID], the “FI (650)/FI (620)” value (BTK-1h; [7]) was 25.7359, the “FI (BTK-1h)/FI (BTK-1h+Inhibitor) at 620 nm” value (BTK-1h; [7]) was 0.9352 and the “FI (BTK-1h)/FI (BTK-1h+Inhibitor) at 620 nm” value (BTK-1h; Dataset S2B, 200 μM inhibitor added to BTK-1h (2 μm)) was 25.7359. The IC50 [2] was 600 nM, the “selectivity to L1” value [2] was 125 fold and the “BTK Inhibition reported in luminescence assay*” value (from here on “BTK Inhibition reported”) (BTK [3]) was 79.5.

For O=C1CCC(N2C(=O)c3cccc(O)c3C2=O)C(=O)N1 (stereo not drawn) [thalidomide-OH], the “rescue of 1n-induced BTK degradation” value (BTK [4]; Mino cells pretreated 2 h before PROTAC 24 h) was “able to rescue the degradation”.

For Cc1cc(Nc2cc(N3CCN(C)CC3)nc(/C=C/c3ccccc3)n2)n[nH]1.O=C(O)C(O)C(O)C(=O)O [ENMD-2076 L-(+)-Tartaric acid], the “FI (650)/FI (620)” value (BTK-1h; Dataset S2C, BTK-1h with inhibitor) is listed as 1.943 and the “selectivity for Aurora A over Aurora B” value (Aurora A) is listed as 25 fold.

With C=C(CN1CCC[C@@H](n2nc(-c3ccc(Oc4ccccc4)cc3)c3c(N)ncnc32)C1)C(=O)NCCNC(=O)CCC(=O)N1Cc2ccccc2C#Cc2ccccc21 [1f] the buffer stability (Buffer stability assay; phosphate buffer pH 8, 37 °C, 4 days) was “No further hydrolysis has been observed under these buffer conditions”, the “B cell activation (CD86 expression) after anti-IgM” value (primary mouse B cells) was “did not inhibit the activation of B cells” and the “labeling of BTK in live Mino cells” value (BTK [1]) was “labeled BTK at a concentration of 100 nM”. For the same compound, the “time to robust labeling of BTK in cells” value (BTK [1]; Mino cells, 100 nM probe) was 30 to 60 min and the “BTK autophosphorylation after anti-IgM” value (BTK [5]) was “did not affect the activity”.

With C=C(CN1CCC[C@@H](n2nc(-c3ccc(Oc4ccccc4)cc3)c3c(N)ncnc32)C1)C(=O)NCCOCCOCCOCCOCCNc1cccc2c1C(=O)N(C1CCC(=O)NC1=O)C2=O (stereo partly drawn) [1n] the water adduct formed (Buffer stability assay; PBS buffer pH 8, 37 °C) was 15%, the “Log2(DMSO/treated)” value (Mino cells; BTK_HUMAN) was 4.3089 and the “Log2(DMSO/treated)” value (Mino cells; EXOS4_HUMAN) was 1.641. The “Log2(DMSO/treated)” value (Mino cells; H14_HUMAN;H11_HUMAN;H1T_HUMAN) was 1.44, the “depletion of BTK” value (Mino cells; Mino cells) was “more than 16 fold” and the “depletion of CSK” value (Mino cells; Mino cells) was “more than 50%”. The DC50 (BTK [4]; read-out: DC50) was under 100 nM and the DC50 (BTK [4]; read-out: DC50 according to the polynomial fit) was 11.4 nM.

In the case of CC(C)N1CCN(Cc2cnc(-c3cc(-c4cccc5[nH]ccc45)cc4[nH]ncc34)o2)CC1 [PCM-0213407-002], the “FI (650)/FI (620)” value (BTK-1h; [7]) is given as 0.9167, the “FI (BTK-1h)/FI (BTK-1h+Inhibitor) at 620 nm” value (BTK-1h; [7]) is given as 1.042 and the “BTK Inhibition reported” value (BTK [3]) is given as 51.7.

In the case of O=C(c1ccccc1O)c1[nH]c(Cl)c(Cl)c1-n1c(C(=O)c2ccccc2O)cc(Cl)c1Cl [PCM-0215850-001], the “FI (650)/FI (620)” value (BTK-1h; [7]) is given as 1.151, the “FI (BTK-1h)/FI (BTK-1h+Inhibitor) at 620 nm” value (BTK-1h; [7]) is given as 1.016 and the “BTK Inhibition reported” value (BTK [3]) is given as 117.4.
